Experimental data from patent US20060105967A1, “Flavone derivatives as TNFalpha inhibitors or antagonists” (Advanced Gene Technology, Corp., priority 2004, published 2006).

Columns and labels:
[1] = test system: rats with collagen-induced arthritis; assay: Anti-inflammatory effect on rats with collagen-induced arthritis; assay type: in vivo, rat; conditions: for decreased percentage of edema: IP
Description: SD rats of SPF grade were supplied from BioLasco. Prior to performing the study, the animals were accommodated for 4 days after being received. Weighing, blood sampling, measuring the paw volumes and other related records for each animal were established. The rats were immunized and boosted with bovine collagen II-EFA (Incomplete Freund's Adjuvant, from Sigma) to induce arthritis (CIA). The CIA rats were grouped into 6 groups and daily injected with the drug candidates (myricitrin and quercetin-3-D-glucoside respectively). Dexamethasone (0.2 mg) was used as a positive control and 5% ethanol as a negative control. Treatment period was 7 days. Body weight and paw volumes were measured and blood sampling were collected at day 0, 3, 6, 10 and 14.
Six days after the final dosing, all the animals were sacrificed. The affected hind limbs were removed for histological assessment. The parameters of body weights and paw volumes were measured and compared for before, during and after treatment with drug candidates.

[2] = target: T1, TNFα (Homo sapiens, UniProt P01375); assay: L929 cell proliferation/cytotoxicity assay, TNFα activity assay; assay type: cell-based
T1 construct: purchased
Description: (§1) L929 cells were cultured in Eagle's Minimal Essential Medium (MEM) containing 10% equine serum, 1% P/S and 1% non-essential amino acid. Confluent L929 cells were washed with 2 ml PBS (phosphate-buffered saline) solution and then trypsinized with 1 ml 1×trypsin, followed by resuspending in complete medium. Two hundred microliter of cell suspension was aspirated for cell density counting. […]. Add 100 μl of cell suspension to each well in 96-well flat-bottomed microtitre plates and incubated for 24 hrs in 5% CO2 atmosphere at 37° C. incubator.
Crude herbal extracts were resuspended in 1×PBS and sterilized with 0.22 μm filters. Varying concentrations of herbal extract were incubated for 1 hr with equal volume of commercial TNFα 0.2 ng/ml. Before the end of the 1 hr pre-incubation, removing the medium from the 24 hr incubated 96-well plate, and added a 50 μl fresh medium containing 4 μg/ml of Actinomycin D into the 96-well plate. Transferred the 50 μl of pre-incubated mixture of herbal extraction and TNFα to the 96-well plate with the medium containing Act D to give the final concentration of Act D (2 μg/ml), TNFα(0.1 ng/ml). […]
The same samples as those for TNFα activity assay were added to the 96-well plate with the medium containing Act D to give the final concentration of Act D 2 μg/ml. […] Read with ELISA (enzyme-linked immunosorbent assay) reader at O.D (optical density) 490/630 nm. […]

[3] = test system: L929 cells; assay: Cytotoxicity in L929 cells (XTT); assay type: cell-based; conditions: Act D 2 μg/ml, 24 hrs
Description: as §1
The same samples as those for TNFα activity assay were added to the 96-well plate with the medium containing Act D to give the final concentration of Act D 2 μg/ml. Mixed well by gently shaking and then incubated for 24 hrs in 5% CO2 atmosphere at 37° C. incubator. 50 μl XTT mixture (XTT−1: XTT−2=50:1) was added to each well, and incubated in a CO2 incubator for 4 hrs. Read with ELISA (enzyme-linked immunosorbent assay) reader at O.D (optical density) 490/630 nm. […]. Quercitrin and Myricitrin Identification (1) Thin-Layer Chromatography

[4] = CIA rats, 3rd day after treatment stopped (T4)
[5] = CIA rats, 7th day after treatment stopped (T5)

T1 sequence (P01375 77-233 limits assumed, species assumed): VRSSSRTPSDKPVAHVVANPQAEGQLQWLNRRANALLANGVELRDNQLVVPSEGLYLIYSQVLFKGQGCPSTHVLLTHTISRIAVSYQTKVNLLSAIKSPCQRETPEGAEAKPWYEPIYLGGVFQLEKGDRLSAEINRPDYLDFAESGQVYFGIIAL

SMILES	decreased percentage of edema [1, 4] [%]	decreased percentage of edema [1, 5] [%]	histopathological changes of joint ([1]; CIA rats treated (IP), hind limbs removed six days after final dosing)	decreased percentage of edema volumes for hind paws ([1]; CIA rats, daily injection (IP), treatment period / day 6 of treatment (T3), vs non-treatment paw volume) [%]	IC50 [2] [µM]	cell cytotoxicity [3]
C[C@@H]1C[C@H]2[C@@H]3CCC4=CC(=O)C=C[C@]4(C)[C@@]3(F)[C@@H](O)C[C@]2(C)[C@@]1(O)C(=O)CO [dexamethasone, reference compound]	28.21	29.97				
O=c1c(O[C@@H]2O[C@H](CO)[C@@H](O)[C@H](O)[C@H]2O)c(-c2ccc(O)c(O)c2)oc2cc(O)cc(O)c12 [quercetin-3-D-glucoside]	24.93	80.47	proliferation of synovial ling cell and infiltration of lymphocytes was shown	8.59	95.7	
C[C@@H]1O[C@@H](Oc2c(-c3ccc(O)c(O)c3)oc3cc(O)cc(O)c3c2=O)[C@H](O)[C@H](O)[C@H]1O [quercitrin]					161	without cell cytotoxicity
